Data from patent US20230339880A1, “COMPOSITIONS OF AJULEMIC ACID AND USES THEREOF” (priority 2019, published 2023).

Assays:
Assay type in all cases: physicochemical
[1] = Thermodynamic solubility studies; conditions: for Average Concentration: triplicate average; for Form by XRPD Dry: residual solids dried under vacuum; for Form by XRPD Wet: residual solids
Method: For each experiment, approximately 50 mg of either crystal form A or crystal form B was weighed into a 20 mL scintillation vial. 15 mL of the appropriate solvent system was added and the solution was stirred at 37° C. At approximately 7.5 h, a portion of the mother liquor was transferred to a pre-heated vial (at 37° C.) via syringe filter (0.45 μm). An aliquot of slurry was removed, and the solids in the aliquot were isolated by centrifugation and plated for XRPD analysis. The plated solids were stored in freezer for 12 h prior to analysis.
The remaining solution was further stirred at 37° C. overnight (approximately 25 h total stirring time). Stirring was then terminated and the solids were allowed to settle. After approximately 0.75 h, a portion of the mother liquor was transferred to a pre-heated vial (at 37° C.) via syringe filter (0.45 μm). The residual solids were isolated by centrifugation and analyzed by XRPD.
For “dry” analysis, the XRPD plates were dried under vacuum at ambient temperature for approximately 23 h and re-analyzed.

[2] = Thermogravimetric Analysis/Dynamic Temperature Analysis (TGA/DTA); conditions: for TGA wt. loss: from the onset to about 210° C., heating 10° C./min
Method: Approximately 5-10 mg of material was weighed into an open aluminum pan and loaded into a TA Instruments SDT650 and held at room temperature. The sample was then heated at a rate of 10° C./min from 30° C. to 350° C. during which time the change in sample weight was recorded along with the heat flow response (DSC). Nitrogen was used as the purge gas, at a flow rate of 100 cm^3/min for both the sample and balance purges.

[3] = Dynamic Vapor Sorption (DVS)
Method: Approximately 10-20 mg of sample was placed into a mesh vapor sorption balance pan and loaded into a Surface Measurement Systems DVS Intrinsic dynamic vapor sorption balance. The material was subjected to a ramping profile from 40 to 90% relative humidity (RH) at 10% increments, maintaining the sample at each step until a stable weight had been achieved (dm/dt 0.004%, minimum step length 30 minutes, maximum step length 500 minutes) at 25° C. After completion of the sorption cycle, the sample was dried using the same procedure to 0% RH and then a second sorption cycle back to 40% RH was carried out. Two cycles were performed. The weight change during the sorption/desorption cycles were plotted, allowing the hygroscopic nature of the sample to be determined. XRPD analysis was then carried out on any solid retained.
Because this equilibration with ambient humidity is rapid, calculation or use of sufficiently accurate assay results on Form A material must take into account its current water content.

[4] = FaSSGF, after approximately 7.5 h at 37° C.
[5] = FaSSGF, after approximately 25 h at 37° C.
[6] = FaSSIF, after approximately 7.5 h at 37° C.
[7] = FaSSIF, after approximately 25 h at 37° C.
[8] = FeSSIF, after approximately 7.5 h at 37° C.
[9] = FeSSIF, after approximately 25 h at 37° C.
[10] = pH 6.1 media, after approximately 7.5 h at 37° C.
[11] = pH 6.1 media, after approximately 25 h at 37° C.
[12] = pH 6.8 media, after approximately 7.5 h at 37° C.
[13] = pH 6.8 media, after approximately 25 h at 37° C.
[14] = FaSSGF, approximately 7.5 h at 37° C.
[15] = FaSSGF, approximately 25 h at 37° C.
[16] = FeSSIF, approximately 7.5 h at 37° C.
[17] = FeSSIF, approximately 25 h at 37° C.
[18] = pH 6.1 media, approximately 25 h at 37° C.
[19] = pH 6.8 media, approximately 25 h at 37° C.

| Structure (SMILES) | Average Concentration [1, 4] | Average Concentration [1, 5] | Average Concentration [1, 6] | Average Concentration [1, 7] | Average Concentration [1, 8] | Average Concentration [1, 9] | Average Concentration [1, 10] | Average Concentration [1, 11] | Average Concentration [1, 12] | Average Concentration [1, 13] | TGA wt. loss [2] | also measured |
| --- | --- | --- | --- | --- | --- | --- | --- | --- | --- | --- | --- | --- |
| CCCCCCC(C)(C)c1cc(O)c2c(c1)OC(C)(C)[C@@H]1CC=C(C(=O)O)C[C@@H]21 [crystal form A, (6aR,10aR)-1-hydroxy-6,6-dimethyl-3-(2-methyl-2-octanyl)-6a,7,10,10a-tetrahydro-6H-benzo[c]chromene-9-carboxylic acid] | 0.2 µg/mL | 0.2 µg/mL | 1063 µg/mL | 391 µg/mL | 335 µg/mL | 227 µg/mL | 3.0 µg/mL | 2.0 µg/mL | 18 µg/mL | 14 µg/mL | 0.7 % wt. | Form by XRPD Dry [1, 14]: A + trace B; Form by XRPD Dry [1, 15]: B + A; Form by XRPD Dry [1, 16]: A*; Form by XRPD Dry [1, 17]: (X) +; Form by XRPD Dry [1, 18]: A +; Form by XRPD Dry [1, 19]: A*; Form by XRPD Wet [1, 14]: A + trace B; Form by XRPD Wet [1, 15]: A + B; Form by XRPD Wet ([1]; FaSSIF, approximately 25 h at 37° C.): B +; Form by XRPD Wet [1, 16]: A*; Form by XRPD Wet [1, 17]: (X) +; Form by XRPD Wet [1, 18]: A + B; Form by XRPD Wet [1, 19]: A*; TGA wt. loss ([2]; listed as Crystal Form A): 0.7 % wt.; uptake of water by weight ([3]; at 90% RH, similar DVS studies): about 3.5% |
| CCCCCCC(C)(C)c1cc(O)c2c(c1)OC(C)(C)[C@@H]1CC=C(C(=O)O)C[C@@H]21 [crystal form B, (6aR,10aR)-1-hydroxy-6,6-dimethyl-3-(2-methyl-2-octanyl)-6a,7,10,10a-tetrahydro-6H-benzo[c]chromene-9-carboxylic acid] | 0.3 µg/mL | 0.4 µg/mL | 242 µg/mL | 266 µg/mL | 684 µg/mL | 696 µg/mL | 1.2 µg/mL | 0.1 µg/mL | 4.3 µg/mL | 2.0 µg/mL | 0.9 % wt. | TGA wt. loss ([2]; listed as Crystal Form B): no significant mass loss; decomposition temperature by TGA/DTA ([2]; heating 10° C./min from 30° C. to 350° C.): ca. 285 °C; water uptake ([3]; at 90% RH, 25° C.): circa 1 wt %; hygroscopic nature by DVS ([3]; ramping 40 to 90% RH, 25° C.): slightly hygroscopic; Post-DVS XRPD analysis ([3]; solid retained after two sorption/desorption cycles): no change in pattern |
